# From PubChem BioAssay AID1919016 (Molecular Pharmacology Branch, DTP, NCI, 2023)
# Test system: NCI-H196 complex spheroid growth, percent test/control
# Experiment: Anticancer human tumor NCI-H196 cell line growth inhibition [AhR];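 also: seven days of drug exposure starting three days after plating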;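 as to viability, T/C: 100% = DMSO vehicle control wells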
# Conditions: for IC50: curve of first compound; for viability, T/C: stronger effect = lower value
# Excerpt: Multicellular complex tumor spheroid response to aryl hydrocarbon receptor antagonists in combination with a variety of drugs and investigational agents in selected tumor cell lines
# The current study was undertaken to assess response to aryl hydrocarbon receptor antagonists in combination with standard-of-care drugs and investigational agents in solid tumor complex spheroid models. Complex spheroids include a stromal component modeled by human endothelial cells (HUVEC) and fibroblasts modeled by human mesenchymal stem cells (MSCs). The concentration ranges selected for each drug and investigational agent were based upon clinically achievable concentrations if the clinical Cmax of the agent was known.
# Compounds. The drugs and investigational agents: BAY 2416964 (NSC825713), GNF351 (NSC835774), CH-223191 (NSC835775), CPI-455 (NSC825282), aza-TdCyd (NSC777586), decitabine (NSC127716), belinostat (NSC758774), entinostat (NSC756642), pevonedistat (NSC761192), tazemetostat (NSC777109), talazoparib (NSC765396), olaparib (NSC753686), selinexor (NSC780203), nedisertib (M3814, NSC802822), bortezomib (NSC756655), venetoclax (NSC766270), doxorubicin (NSC123127), elimusertib (BAY189344, NSC800525), ceralasertib (AZD6738, NSC777638), TAK-243 (NSC785004), alisertib (NSC759677), etoposide (NSC141540), topotecan (NSC609699), eribulin (NSC707389), gemcitabine (NSC613327), carboplatin (NSC241240), cisplatin (NSC119875), and SN-38 (NSC673596) were obtained from the National Cancer Institute (NCI) Developmental Therapeutics Program Chemical Repository (32). The FDA-approved anticancer drug set is available from the Developmental Therapeutics Program at https://dtp.cancer.gov/organization/dscb/obtaining/available plates.htm. […] The stock solutions were prepared in dimethyl sulfoxide (DMSO, Sigma-Aldrich, St. Louis, MO, cat. D2650), except for the platinum compounds which were prepared in saline (Quality Biological, Gaithersburg, MD, cat. 114-055-101), at 800-fold the tested concentration and stored at -70 degrees C prior to their use. All drugs and investigational agents were tested over a range starting from a high concentration at or near the clinical Cmax and decreasing in half-log increments. If the clinical Cmax for an agent had not been determined, the highest concentration tested was 10 microM (Table 1).
# Cell Culture. All cells were maintained in an incubator at 37 degrees C and 5% CO2 with 95% humidity. The PDC lines were cultured according to standard operating procedures established by the NCI PDMR (https://pdmr.cancer.gov). Briefly, all PDCs were thawed and cultured in Matrigel-coated flasks prepared with a working solution of 1X Ham's F-12 nutrient mix, without supplementation (Invitrogen, Waltham, MA, cat. 11765054), 100 U/mL penicillin-streptomycin (Invitrogen, cat. 15140122), and 2.5% Matrigel (Corning Inc., Corning, NY, cat. 354248) for the first three passages. All PDCs were cultured in complete DMEM/F-12 media containing advanced DMEM/F-12 (Invitrogen, cat. 12634028), 4.9% defined fetal bovine serum, heat inactivated (HyClone Laboratories Inc., Logan, UT, cat. SH30070.03HI), 389 ng/mL hydrocortisone (Sigma-Aldrich, cat. H4001), 9.7 ng/mL human EGF recombinant protein (Invitrogen, cat. PHG0313), 23.4 microg/mL adenine (Sigma-Aldrich, cat. A2786), 97.3 U/mL penicillin-streptomycin (Invitrogen, cat. 15140122), 1.9 mM L-glutamine (Invitrogen, cat. 25030081), and 9.7 microM Y-27632 dihydrochloride (Tocris Bioscience, Bristol, United Kingdom, cat. 1254). The PDCs were cultured in complete DMEM/F12 media without 10 microM Y-27632 dihydrochloride for at least two passages prior to the screen. The established cell lines NCI-H1341 and […] were cultured in DMEM/F-12, HEPES (Invitrogen, cat. 11330032), 5% defined fetal bovine serum (HyClone Laboratories Inc., cat. SH30070.03), ITS premix universal culture supplement [insulin (5 microg/mL), transferrin (5 microg/mL), and selenious acid (5 ng/mL)] […]
# [1] = second compound 0.1 µM, first compound 0.0316 µM
# [2] = second compound 0.1 µM, first compound 0.1 µM
# [3] = second compound 0.1 µM, first compound 0.316 µM
# [4] = second compound 0.1 µM, first compound 1 µM
# [5] = second compound 0.1 µM, first compound 3.16 µM
# [6] = second compound 0.1 µM, first compound 10 µM
# [7] = second compound 0.316 µM, first compound 0.0316 µM
# [8] = second compound 0.316 µM, first compound 0.1 µM
# [9] = second compound 0.316 µM, first compound 0.316 µM
# [10] = second compound 0.316 µM, first compound 1 µM
# [11] = second compound 0.316 µM, first compound 3.16 µM
# [12] = second compound 0.316 µM, first compound 10 µM
# [13] = second compound 1 µM, first compound 0.0316 µM
# [14] = second compound 1 µM, first compound 0.1 µM
# [15] = second compound 1 µM, first compound 0.316 µM
# [16] = second compound 1 µM, first compound 1 µM
# [17] = second compound 1 µM, first compound 3.16 µM
# [18] = second compound 1 µM, first compound 10 µM
# [19] = second compound 3.16 µM, first compound 0.0316 µM
# [20] = second compound 3.16 µM, first compound 0.1 µM
# [21] = second compound 3.16 µM, first compound 0.316 µM
# [22] = second compound 3.16 µM, first compound 1 µM
# [23] = second compound 3.16 µM, first compound 3.16 µM
# [24] = second compound 3.16 µM, first compound 10 µM
# [25] = second compound 10 µM, first compound 0.0316 µM
# [26] = second compound 10 µM, first compound 0.1 µM
# [27] = second compound 10 µM, first compound 0.316 µM
# [28] = second compound 10 µM, first compound 1 µM
# [29] = second compound 10 µM, first compound 3.16 µM
# [30] = second compound 10 µM, first compound 10 µM
smiles,measurement,setting,value
COc1cc(C2c3cc4c(cc3C(OC3OC5COC(C)OC5C(O)C3O)C3COC(=O)C23)OCO4)cc(OC)c1O (stereo not given) + CC(CO)NC(=O)c1cc(-c2ccc(Cl)cc2)nn(-c2cnn(C)c2)c1=O,IC50,second compound 0.1 µM,> 10000 nM
same,IC50,second compound 0.316 µM,> 10000 nM
same,IC50,second compound 1 µM,> 10000 nM
same,IC50,second compound 3.16 µM,> 10000 nM
same,IC50,second compound 10 µM,> 10000 nM
same,"viability, T/C",[1],113%
same,"viability, T/C",[2],116%
same,"viability, T/C",[3],101%
same,"viability, T/C",[4],112%
same,"viability, T/C",[5],104%
same,"viability, T/C",[6],101%
same,"viability, T/C",[7],109%
same,"viability, T/C",[8],118%
same,"viability, T/C",[9],102%
same,"viability, T/C",[10],104%
same,"viability, T/C",[11],109%
same,"viability, T/C",[12],94.9%
same,"viability, T/C",[13],117%
same,"viability, T/C",[14],106%
same,"viability, T/C",[15],119%
same,"viability, T/C",[16],106%
same,"viability, T/C",[17],110%
same,"viability, T/C",[18],105%
same,"viability, T/C",[19],103%
same,"viability, T/C",[20],110%
same,"viability, T/C",[21],119%
same,"viability, T/C",[22],110%
same,"viability, T/C",[23],117%
same,"viability, T/C",[24],97.9%
same,"viability, T/C",[25],126%
same,"viability, T/C",[26],128%
same,"viability, T/C",[27],114%
same,"viability, T/C",[28],109%
same,"viability, T/C",[29],115%
same,"viability, T/C",[30],95.6%
COc1cccc2c1C(=O)c1c(O)c3c(c(O)c1C2=O)CC(O)(C(=O)CO)CC3OC1CC(N)C(O)C(C)O1 (stereo not given) + CC(CO)NC(=O)c1cc(-c2ccc(Cl)cc2)nn(-c2cnn(C)c2)c1=O,IC50,second compound 0.1 µM,943 nM
same,IC50,second compound 0.316 µM,1080 nM
same,IC50,second compound 1 µM,967 nM
same,IC50,second compound 3.16 µM,895 nM
same,IC50,second compound 10 µM,732 nM
same,"viability, T/C",[1],109%
same,"viability, T/C",[2],105%
same,"viability, T/C",[3],85.6%
same,"viability, T/C",[4],52.8%
same,"viability, T/C",[5],1.78%
same,"viability, T/C",[6],0.87%
same,"viability, T/C",[7],102%
same,"viability, T/C",[8],116%
same,"viability, T/C",[9],100%
same,"viability, T/C",[10],53.8%
same,"viability, T/C",[11],1.55%
same,"viability, T/C",[12],1.77%
same,"viability, T/C",[13],110%
same,"viability, T/C",[14],116%
same,"viability, T/C",[15],101%
same,"viability, T/C",[16],49.6%
same,"viability, T/C",[17],1.06%
same,"viability, T/C",[18],2.36%
same,"viability, T/C",[19],113%
same,"viability, T/C",[20],110%
same,"viability, T/C",[21],104%
same,"viability, T/C",[22],44.4%
same,"viability, T/C",[23],0.77%
same,"viability, T/C",[24],1.04%
same,"viability, T/C",[25],119%
same,"viability, T/C",[26],122%
same,"viability, T/C",[27],89.9%
same,"viability, T/C",[28],36.6%
same,"viability, T/C",[29],0.56%
same,"viability, T/C",[30],2.67%
Nc1ncn(C2CC(O)C(CO)O2)c(=O)n1 (stereo not given) + CC(CO)NC(=O)c1cc(-c2ccc(Cl)cc2)nn(-c2cnn(C)c2)c1=O,IC50,second compound 0.1 µM,> 1000 nM
same,IC50,second compound 0.316 µM,> 1000 nM
same,IC50,second compound 1 µM,> 1000 nM
same,IC50,second compound 3.16 µM,> 1000 nM
same,IC50,second compound 10 µM,> 1000 nM
same,"viability, T/C","second compound 0.1 µM, first compound 0.00316 µM",112%
same,"viability, T/C","second compound 0.1 µM, first compound 0.01 µM",117%
same,"viability, T/C",[1],105%
same,"viability, T/C",[2],106%
same,"viability, T/C",[3],120%
same,"viability, T/C",[4],126%
same,"viability, T/C","second compound 0.316 µM, first compound 0.00316 µM",107%
same,"viability, T/C","second compound 0.316 µM, first compound 0.01 µM",116%
same,"viability, T/C",[7],114%
same,"viability, T/C",[8],107%
same,"viability, T/C",[9],114%
same,"viability, T/C",[10],120%
same,"viability, T/C","second compound 1 µM, first compound 0.00316 µM",120%
same,"viability, T/C","second compound 1 µM, first compound 0.01 µM",118%
same,"viability, T/C",[13],128%
same,"viability, T/C",[14],108%
same,"viability, T/C",[15],110%
same,"viability, T/C",[16],115%
same,"viability, T/C","second compound 3.16 µM, first compound 0.00316 µM",126%
same,"viability, T/C","second compound 3.16 µM, first compound 0.01 µM",130%
same,"viability, T/C",[19],120%
same,"viability, T/C",[20],104%
same,"viability, T/C",[21],121%
same,"viability, T/C",[22],115%
same,"viability, T/C","second compound 10 µM, first compound 0.00316 µM",141%
same,"viability, T/C","second compound 10 µM, first compound 0.01 µM",119%
same,"viability, T/C",[25],137%
same,"viability, T/C",[26],114%
same,"viability, T/C",[27],133%
same,"viability, T/C",[28],116%
